# pIC50: −log10 of the molar value.
# How the values were obtained:
# Test in all cases: Ba/F3 cell viability, Cell Titer Glo
# EGFR R776H = EGFR R776H (Homo sapiens, UniProt P00533, R776H); details: read-out: IC50 Values; Ba/F3 cells expressing EGFR R776H, 72 hours
# Protocol: (§1) Cell viability was determined by the Cell Titer Glo assay.
# (§2) Briefly, stable Ba/F3 cell lines were generated by retroviral transduction of Ba/F3 cell line for 12 hours. […] Three days after transduction, 2 μg/ml puromycin (Invitrogen) was added to the RPMI media. Cell lines were then grown in the absence of IL-3 for two weeks and cell viability was assessed every three days using the Cell Titer Glo assay (Progema).
# (§3) Briefly, 2000-3000 cells per well were plated in 384-well plates (Greiner Bio-One) in technical triplicate. Cells were treated with seven different concentrations of tyrosine kinase inhibitors or vehicle alone at a final volume of 40 μL per well. After 3 days, 11 μL of Cell Titer Glo was added to each well. Plates were shaken for 15 minutes, and bioluminescence was determined using a FLUOstar OPTIMA multi-mode micro-plate reader (BMG LABTECH). Bioluminescence values were normalized to DMSO treated cells, and normalized values were plotted in GraphPad Prism using non-linear regression fit to normalized data with a variable slope.
# EGFR Ex19del T790M C797S = EGFR Ex19del T790M C797S (Homo sapiens, UniProt P00533, C797S/DEL746-750/T790M); details: read-out: IC50 Values; Ba/F3 cells expressing EGFR Ex19del T790M C797S, 72 hours
# Protocol: as §1, §2, §3
# [1] = biological target: EGFR L747 K754del insATSPE (Homo sapiens, UniProt P00533, DEL747-749/K754E); details: read-out: IC50 Values; Ba/F3 cells expressing EGFR L747 K754del insATSPE, 72 hours
# Protocol: as §1, §2, §3
# EGFR Ex19delT790M L718V = EGFR Ex19delT790M L718V (Homo sapiens, UniProt P00533, DEL746-750/L718V/T790M); details: read-out: IC50 Values; Ba/F3 cells expressing EGFR Ex19delT790M L718V, 72 hours
# Protocol: as §1, §2, §3
# EGFR L858R/T790M = EGFR L858R/T790M (Homo sapiens, UniProt P00533, L858R/T790M); details: read-out: IC50 Values; Ba/F3 cells expressing EGFR L858R/T790M, 72 hours
# Protocol: as §1, §2, §3
# EGFR Ex19del/T790M/L792H = EGFR Ex19del/T790M/L792H (Homo sapiens, UniProt P00533, DEL746-750/L792H/T790M); details: read-out: IC50 Values; Ba/F3 cells expressing EGFR Ex19del/T790M/L792H, 72 hours
# Protocol: as §1, §2, §3
# EGFR H773insNPH = EGFR H773insNPH (Homo sapiens, UniProt P00533, INS773NPH); details: read-out: IC50 Values; Ba/F3 cells expressing EGFR H773insNPH, 72 hours
# Protocol: as §1, §2, §3
# EGFR S768I/V769L = EGFR S768I/V769L (Homo sapiens, UniProt P00533, S768I/V769L); details: read-out: IC50 Values; Ba/F3 cells expressing EGFR S768I/V769L, 72 hours
# Protocol: as §1, §2, §3
# EGFR L833V = EGFR L833V (Homo sapiens, UniProt P00533, L833V); details: read-out: IC50 Values; Ba/F3 cells expressing EGFR L833V, 72 hours
# EGFR L833V, sequence (P00533 25-1210 L833V): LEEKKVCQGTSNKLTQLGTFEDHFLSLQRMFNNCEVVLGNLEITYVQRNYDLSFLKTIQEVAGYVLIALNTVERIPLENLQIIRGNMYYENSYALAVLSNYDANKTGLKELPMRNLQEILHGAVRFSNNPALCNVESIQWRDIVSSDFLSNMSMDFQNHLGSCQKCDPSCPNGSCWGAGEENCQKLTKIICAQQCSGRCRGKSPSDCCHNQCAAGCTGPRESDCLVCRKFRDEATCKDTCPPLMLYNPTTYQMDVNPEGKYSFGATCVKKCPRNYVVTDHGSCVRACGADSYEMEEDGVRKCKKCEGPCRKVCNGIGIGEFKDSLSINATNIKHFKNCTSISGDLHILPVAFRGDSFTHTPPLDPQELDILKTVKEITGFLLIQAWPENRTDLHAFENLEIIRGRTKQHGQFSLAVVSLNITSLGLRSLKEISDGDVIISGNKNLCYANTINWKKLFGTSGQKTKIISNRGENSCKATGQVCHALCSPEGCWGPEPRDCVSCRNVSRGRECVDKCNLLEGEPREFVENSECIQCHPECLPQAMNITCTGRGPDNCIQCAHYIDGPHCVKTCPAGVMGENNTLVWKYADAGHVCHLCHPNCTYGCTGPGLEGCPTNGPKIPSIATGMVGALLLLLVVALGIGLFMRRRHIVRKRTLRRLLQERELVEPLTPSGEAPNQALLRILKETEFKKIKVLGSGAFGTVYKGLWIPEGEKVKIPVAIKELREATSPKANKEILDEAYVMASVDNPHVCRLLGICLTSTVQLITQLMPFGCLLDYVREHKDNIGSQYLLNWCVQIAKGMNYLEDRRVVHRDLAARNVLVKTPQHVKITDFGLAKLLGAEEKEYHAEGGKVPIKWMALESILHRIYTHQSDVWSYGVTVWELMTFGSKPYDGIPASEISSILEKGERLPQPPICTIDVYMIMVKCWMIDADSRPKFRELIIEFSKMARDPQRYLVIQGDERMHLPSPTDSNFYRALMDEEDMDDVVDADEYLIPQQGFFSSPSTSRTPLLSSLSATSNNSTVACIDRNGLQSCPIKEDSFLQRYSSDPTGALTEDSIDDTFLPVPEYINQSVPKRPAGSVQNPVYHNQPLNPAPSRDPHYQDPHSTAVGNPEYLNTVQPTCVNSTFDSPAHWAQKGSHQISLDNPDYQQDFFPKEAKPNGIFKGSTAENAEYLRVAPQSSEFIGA
# Protocol: as §1, §2, §3
# EGFR L858R/T790M/L718Q = EGFR L858R/T790M/L718Q (Homo sapiens, UniProt P00533, L718Q/L858R/T790M); details: read-out: IC50 Values; Ba/F3 cells expressing EGFR L858R/T790M/L718Q, 72 hours
# EGFR L858R/T790M/L718Q, sequence (P00533 25-1210 L718Q/T790M/L858R): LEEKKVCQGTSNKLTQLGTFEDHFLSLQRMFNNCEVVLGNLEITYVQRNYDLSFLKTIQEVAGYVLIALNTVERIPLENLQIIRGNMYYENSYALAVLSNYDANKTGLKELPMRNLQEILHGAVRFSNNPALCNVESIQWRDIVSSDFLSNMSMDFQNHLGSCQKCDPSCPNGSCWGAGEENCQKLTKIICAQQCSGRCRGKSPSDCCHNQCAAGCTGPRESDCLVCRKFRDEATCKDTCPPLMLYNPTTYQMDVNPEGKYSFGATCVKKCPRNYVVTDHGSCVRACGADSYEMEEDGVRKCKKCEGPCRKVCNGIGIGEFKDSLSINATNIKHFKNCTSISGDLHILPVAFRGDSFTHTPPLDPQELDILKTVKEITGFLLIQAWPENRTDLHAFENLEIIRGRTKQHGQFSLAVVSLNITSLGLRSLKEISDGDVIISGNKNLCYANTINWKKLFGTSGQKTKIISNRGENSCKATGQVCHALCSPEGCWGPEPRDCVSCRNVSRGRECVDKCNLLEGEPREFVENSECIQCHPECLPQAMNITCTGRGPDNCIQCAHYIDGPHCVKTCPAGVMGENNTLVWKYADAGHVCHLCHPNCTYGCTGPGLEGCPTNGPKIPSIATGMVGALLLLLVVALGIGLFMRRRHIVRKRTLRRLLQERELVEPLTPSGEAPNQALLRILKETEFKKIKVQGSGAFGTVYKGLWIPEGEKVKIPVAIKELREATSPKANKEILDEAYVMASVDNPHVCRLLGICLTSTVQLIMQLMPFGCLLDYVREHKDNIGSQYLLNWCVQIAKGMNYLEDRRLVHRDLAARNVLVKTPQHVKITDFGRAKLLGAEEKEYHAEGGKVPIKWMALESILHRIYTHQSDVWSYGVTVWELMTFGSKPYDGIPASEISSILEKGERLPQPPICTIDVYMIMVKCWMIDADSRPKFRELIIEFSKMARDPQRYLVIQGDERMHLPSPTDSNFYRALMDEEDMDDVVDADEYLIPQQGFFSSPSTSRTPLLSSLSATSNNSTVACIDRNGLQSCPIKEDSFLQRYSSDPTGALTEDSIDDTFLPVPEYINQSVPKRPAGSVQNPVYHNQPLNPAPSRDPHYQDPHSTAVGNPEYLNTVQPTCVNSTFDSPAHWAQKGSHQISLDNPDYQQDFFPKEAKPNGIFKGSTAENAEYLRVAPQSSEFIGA
# Protocol: as §1, §2, §3
# EGFR L858R L718Q = EGFR L858R L718Q (Homo sapiens, UniProt P00533, L718Q/L858R); details: read-out: IC50 Values; Ba/F3 cells expressing EGFR L858R L718Q, 72 hours
# Protocol: (§4) The transforming capability of the mutations was then evaluated by sustained cell viability following IL-3 deprivation. Activating EGFR mutant Ba/F3 cells were then screened against EGFR TKIs. Cell viability was determined by the Cell Titer Glo assay.
# (§5) Ba/F3 cells expressing acquired atypical mutations spanning exons 18-21 were treated with inhibitors for 72 hours. […] Briefly, stable Ba/F3 cell lines were generated by retroviral transduction of Ba/F3 cell line for 12 hours. […] Three days after transduction, 2 μg/ml puromycin (Invitrogen) was added to the RPMI media. Cell lines were then grown in the absence of IL-3 for two weeks and cell viability was assessed every three days using the Cell Titer Glo assay (Progema).
# as §3
# EGFR E709K = EGFR E709K (Homo sapiens, UniProt P00533, E709K); details: read-out: IC50 Values; Ba/F3 cells expressing EGFR E709K, 72 hours
# Protocol: as §1, §2, §3
# EGFR L858R/L718V = EGFR L858R/L718V (Homo sapiens, UniProt P00533, L718V/L858R); details: read-out: IC50 Values; Ba/F3 cells expressing EGFR L858R/L718V, 72 hours
# Protocol: as §4, §5, §3
# EGFR Ex19del/C797S = EGFR Ex19del/C797S (Homo sapiens, UniProt P00533, C797S/DEL746-750); details: read-out: IC50 Values; Ba/F3 cells expressing EGFR Ex19del/C797S, 72 hours
# Protocol: as §4, §5, §3
# EGFR L718Q T790M = EGFR L718Q T790M (Homo sapiens, UniProt P00533, L718Q/T790M); details: read-out: IC50 Values; Ba/F3 cells expressing EGFR L718Q T790M, 72 hours
# Protocol: as §1, §2, §3
# EGFR A767insASV = EGFR A767insASV (Homo sapiens, UniProt P00533, DUP767-769); details: read-out: IC50 Values; Ba/F3 cells expressing EGFR A767insASV, 72 hours
# EGFR A767insASV, sequence (P00533 with tags, fused parts or gaps DUP767-769): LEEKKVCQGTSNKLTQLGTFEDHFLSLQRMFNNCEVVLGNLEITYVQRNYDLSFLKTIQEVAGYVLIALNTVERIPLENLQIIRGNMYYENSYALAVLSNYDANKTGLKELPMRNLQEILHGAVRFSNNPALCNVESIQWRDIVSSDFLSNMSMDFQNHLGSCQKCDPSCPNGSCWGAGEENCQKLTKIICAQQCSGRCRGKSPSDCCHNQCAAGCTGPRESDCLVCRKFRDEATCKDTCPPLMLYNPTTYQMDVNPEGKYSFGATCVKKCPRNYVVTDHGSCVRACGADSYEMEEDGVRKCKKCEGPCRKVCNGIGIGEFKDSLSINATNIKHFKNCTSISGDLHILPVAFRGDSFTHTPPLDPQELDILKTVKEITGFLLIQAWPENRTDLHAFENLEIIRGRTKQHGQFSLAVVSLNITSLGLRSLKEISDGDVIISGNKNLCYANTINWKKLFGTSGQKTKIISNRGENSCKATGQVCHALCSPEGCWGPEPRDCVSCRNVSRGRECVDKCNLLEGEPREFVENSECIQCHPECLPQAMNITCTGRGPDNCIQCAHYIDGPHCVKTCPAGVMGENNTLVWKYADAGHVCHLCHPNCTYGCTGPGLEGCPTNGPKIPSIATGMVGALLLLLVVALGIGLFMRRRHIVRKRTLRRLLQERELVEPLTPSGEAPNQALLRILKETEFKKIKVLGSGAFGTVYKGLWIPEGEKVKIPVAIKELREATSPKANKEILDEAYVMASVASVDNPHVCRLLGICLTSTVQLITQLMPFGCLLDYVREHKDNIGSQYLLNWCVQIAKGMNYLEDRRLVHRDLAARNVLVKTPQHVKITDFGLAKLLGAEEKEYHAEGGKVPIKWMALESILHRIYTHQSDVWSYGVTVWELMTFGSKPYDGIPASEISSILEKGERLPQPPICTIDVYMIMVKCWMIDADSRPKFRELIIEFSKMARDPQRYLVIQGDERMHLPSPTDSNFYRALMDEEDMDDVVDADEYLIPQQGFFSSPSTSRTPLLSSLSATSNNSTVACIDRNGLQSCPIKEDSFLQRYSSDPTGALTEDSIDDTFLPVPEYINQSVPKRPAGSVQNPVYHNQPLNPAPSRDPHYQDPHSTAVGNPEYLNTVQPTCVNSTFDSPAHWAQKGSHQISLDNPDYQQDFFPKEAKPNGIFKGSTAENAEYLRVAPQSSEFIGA
# Protocol: as §1, §2, §3
# EGFR Ex19del L718Q = EGFR Ex19del L718Q (Homo sapiens, UniProt P00533, DEL746-750/L718Q); details: read-out: IC50 Values; Ba/F3 cells expressing EGFR Ex19del L718Q, 72 hours
# Protocol: as §4, §5, §3
# EGFR G724S T790M = EGFR G724S T790M (Homo sapiens, UniProt P00533, G724S/T790M); details: read-out: IC50 Values; Ba/F3 cells expressing EGFR G724S T790M, 72 hours
# EGFR G724S T790M, sequence (P00533 25-1210 G724S/T790M): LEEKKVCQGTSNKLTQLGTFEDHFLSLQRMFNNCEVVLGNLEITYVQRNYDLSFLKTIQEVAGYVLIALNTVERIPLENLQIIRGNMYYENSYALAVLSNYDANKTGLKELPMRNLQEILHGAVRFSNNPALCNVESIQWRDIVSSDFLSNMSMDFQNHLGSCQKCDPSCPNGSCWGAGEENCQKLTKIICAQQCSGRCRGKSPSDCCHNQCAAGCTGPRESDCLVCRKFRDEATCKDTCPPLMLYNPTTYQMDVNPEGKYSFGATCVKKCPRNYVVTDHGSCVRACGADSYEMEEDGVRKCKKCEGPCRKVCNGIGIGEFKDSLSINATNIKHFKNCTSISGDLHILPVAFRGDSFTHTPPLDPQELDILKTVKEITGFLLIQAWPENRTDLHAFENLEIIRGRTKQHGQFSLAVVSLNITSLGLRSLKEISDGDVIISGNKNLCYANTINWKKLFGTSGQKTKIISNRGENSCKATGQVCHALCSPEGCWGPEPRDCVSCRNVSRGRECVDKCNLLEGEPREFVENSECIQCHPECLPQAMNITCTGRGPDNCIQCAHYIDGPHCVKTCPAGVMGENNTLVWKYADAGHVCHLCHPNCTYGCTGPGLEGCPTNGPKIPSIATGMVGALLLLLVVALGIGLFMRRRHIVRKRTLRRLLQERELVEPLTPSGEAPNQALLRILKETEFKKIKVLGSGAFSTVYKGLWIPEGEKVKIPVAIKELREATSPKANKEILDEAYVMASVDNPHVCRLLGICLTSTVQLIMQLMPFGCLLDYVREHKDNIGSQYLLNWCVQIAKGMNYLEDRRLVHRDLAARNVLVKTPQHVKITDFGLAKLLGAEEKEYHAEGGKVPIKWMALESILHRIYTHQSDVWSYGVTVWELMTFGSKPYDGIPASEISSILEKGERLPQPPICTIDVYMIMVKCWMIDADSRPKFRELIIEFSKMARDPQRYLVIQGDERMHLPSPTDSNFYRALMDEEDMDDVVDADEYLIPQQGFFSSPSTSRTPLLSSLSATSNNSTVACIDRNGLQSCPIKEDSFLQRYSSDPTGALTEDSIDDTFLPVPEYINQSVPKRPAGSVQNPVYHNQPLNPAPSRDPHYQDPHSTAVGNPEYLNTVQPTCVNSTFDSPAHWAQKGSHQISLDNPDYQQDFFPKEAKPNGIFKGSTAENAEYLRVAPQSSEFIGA
# Protocol: as §1, §2, §3
# EGFR L858R T790M L718V = EGFR L858R T790M L718V (Homo sapiens, UniProt P00533, L718V/L858R/T790M); details: read-out: IC50 Values; Ba/F3 cells expressing EGFR L858R T790M L718V, 72 hours
# Protocol: as §1, §2, §3
structure (smiles),measurement,setting,value
C=CC(=O)N1CC[C@@H](Oc2nc(Nc3ccc(N4CCC(N5CCN(C)CC5)CC4)cc3)c(C(N)=O)nc2CC)C1 [Naquotinib],pIC50,EGFR R776H,7.16
same,pIC50,EGFR Ex19del T790M C797S,5.71
same,pIC50,[1],9.24
same,pIC50,EGFR Ex19delT790M L718V,8.11
same,pIC50,EGFR L858R/T790M,8.73
same,pIC50,EGFR Ex19del/T790M/L792H,8.32
same,pIC50,EGFR H773insNPH,6.84
same,pIC50,EGFR S768I/V769L,6.63
same,pIC50,EGFR L833V,6.40
same,pIC50,EGFR L858R/T790M/L718Q,7.04
same,pIC50,EGFR L858R L718Q,6.13
same,pIC50,EGFR E709K,6.45
same,pIC50,EGFR L858R/L718V,7.73
same,pIC50,EGFR Ex19del/C797S,5.81
same,pIC50,EGFR L718Q T790M,6.67
same,pIC50,EGFR A767insASV,6.66
same,pIC50,EGFR Ex19del L718Q,8.58
same,pIC50,EGFR G724S T790M,7.73
same,pIC50,EGFR L858R T790M L718V,8.39

# — patent US20260240847A1, “COMPOUNDS WITH ANTI-TUMOR ACTIVITY AGAINST CANCER CELLS BEARING TYROSINE KINASE INHIBITOR RESISTANT EGFR MUTATIONS” (BOARD OF REGENTS, THE UNIVERSITY OF TEXAS SYSTEM, priority 2019, published 2026)
